Measurements taken from PMC3706879, “The neurotrophic compound J147 reverses cognitive impairment in aged Alzheimer's disease mice” (Alzheimer's Research & Therapy, 2013).

Legend:
BDNF = system: BDNF; parameters: method as in PMID 21343524; details: rat traumatic brain injury models; cited from earlier work
C57BL/6J mice [1] = assay: Y-maze, scopolamine induced memory impairment; type: in vivo; details: scopolamine 1 mg/kg i.p.; J147 200 ppm, donepezil 20 ppm in food for two weeks
Experimental: (§1) A total of 60 male mice aged eight weeks were housed 4 per cage and were divided into five groups with 12 mice per group. Treatments were administered in the food (TestDiet® 5015, Richmond, IN, USA) for a period of two weeks before commencement of behavioral testing. […] Following two weeks of treatment, memory impairment was induced by intraperitoneal (i.p.) injection of scopolamine (1 mg/kg) 30 minutes prior to each of the following behavioral tests: Y-maze, probe trial of the water maze and contextual and cued fear conditioning. Mice were allowed to rest for two days between each behavior test. All mice received scopolamine except for one of the control groups, which received saline as a control. Mice were sacrificed 24 hours after the last behavioral test for tissue harvesting.
Spontaneous alternation, the tendency to alternate free choices in a Y-maze (three arms), is a model for studying short term working memory in mice. Mice were injected with 1 mg/kg of scopolamine or saline 30 minutes prior to testing. Then each mouse was placed in the center of the Y and arm entries were recorded by video camera and the order of entries were recorded for the first 15 entries. Spontaneous alternations are defined as consecutive triplets of different arm choices.

C57BL/6J mice [2] = assay: two-day water maze, scopolamine induced memory impairment; type: in vivo; details: scopolamine 1 mg/kg i.p.; J147 200 ppm, donepezil 20 ppm in food for two weeks
Experimental: as §1
Spatial memory was determined using the two-day water maze in 23-month-old huAPPswe/PS1 transgenic mice fed J147 at 200 ppm in food for the previous three months. The protocol was adapted from a publication by Gulinello and colleagues. Water temperature remained at 27°C throughout the experiment. […] The time it took each mouse to find the hidden platform was measured as escape latency. […] All trials were recorded using the EthoVision Software and statistics were computed using GraphPad Instat software (GraphPad Software, San Diego, CA, USA).

C57BL/6J mice [3] = assay: fear conditioning, scopolamine induced memory impairment; type: in vivo; details: scopolamine 1 mg/kg i.p.; J147 200 ppm, donepezil 20 ppm in food; vs scopolamine
Experimental: as §1
Fear conditioning to either a cue or a context represents a form of associative learning. The read-out that is measured in contextual and cued fear conditioning is a freezing response that occurs following the pairing of an unconditioned stimulus (US), such as a foot shock, with a conditioned stimulus (CS), such as a particular context or cue (tone). The mouse will freeze if it remembers and associates that environment with the aversive stimulus. The hippocampus and the amygdala are required for fear memory where the hippocampus is involved in the formation and retrieval of context fear associations and the amygdala is involved in conditioning and recall of associations to contextual and discrete cues. This assay used fear conditioning chambers from Med Associates Inc. with Video Freeze Software (Med Associates Inc, St. Albans, VT, USA). On Day 1, mice were trained by allowing them to explore the chamber for 120 sec, mice were then presented with a 30-sec tone (2 kHz with 85 dB intensity) immediately followed by a 2-sec foot shock (0.7 mA). The tone-shock pairing was repeated following a 30-sec interval and the mice were again allowed to explore for 120 sec before removing them from the chamber. On Day 2, contextual memory, which requires a functioning hippocampus, was tested by placing the mice in the chambers and allowing them to explore for the same length of time as the previous day but without the tone and the shock. On Day 3, cued or emotional memory was tested, which relies on both hippocampus and amygdala. […] On Day 2, the time spent freezing is measured over the entire time in the chamber. […] The percentage of time spent freezing by each mouse is averaged per group and then groups can be compared and P-values calculated to determine statistical significance. On Day 3, the percentage of time spent freezing during the two tones is averaged per group, and then groups can be compared and P-values calculated to determine statistical significance. […]

| SMILES | BDNF levels (BDNF) | short-term working memory (spontaneous alternations, Y maze) (C57BL/6J mice [1]) | spatial memory (time to find hidden platform) (C57BL/6J mice [2]) | contextual memory (freezing Day 2) (C57BL/6J mice [3]) | cued memory (freezing in response to the tone, Day 3) (C57BL/6J mice [3]) |
| --- | --- | --- | --- | --- | --- |
| COc1cc(/C=C/c2cc(/C=C/c3ccc(O)c(OC)c3)n(-c3ccccc3)n2)ccc1O [CNB-001] | increases BDNF levels |  |  |  |  |
| COc1cc2c(cc1OC)C(=O)C(CC1CCN(Cc3ccccc3)CC1)C2 (centres unmarked) [donepezil, reference compound] |  | improve short-term working memory | failed to rescue the deficit | did not improve memory | neither effect was significant |
